Data on two compounds can be found in paper PMC11354720, “Assessing the Efficacy of Protease Inactivation for the Preservation of Bioactive Amphibian Skin Peptides” (International Journal of Molecular Sciences, 2024).

The series has as its system proteases in Pelophylax esculentus skin secretion. It is filed as in vitro ADME. Conditions: for Proteoforms, %: sum of all proteolytic forms; for Proteoforms, % / Intact, %: LC-HRMS; for Intact, %: one frog per sample. As to the method: The inhibitory capacity of methanol and hydrochloric and formic acids, as well as PMSF at the minimum and maximum concentrations traditionally used in proteomics (0.1–1.0 mM), was compared via mass spectrometric monitoring of intact and proteolytic forms of nine peptides in five samples of Pelophylax esculentus secretions (samples 1–5).
Table 2 presents quantitative data for each of the nine peptides in Table 1, showing the percentage ratio of the intact (original) form of the peptide, the oxidized form (in the presence of methionine in the sequence), and the resulting proteolytic forms: products of the action of the remaining non-deactivated proteases. The full list of the detected proteolytic forms is included into the supporting material. The presence of one or another proteolytic form for each peptide in each of the five samples was determined by observing the coincidence of their exact experimental mass with the calculated one (within 0.5 ppm according to the mass spectra), as well as the coincidence of their sequences (tandem mass spectra data).
When calculating the data in Table 2, the total amount of intensities of all its formed forms in the mass spectra was taken as 100% for each peptide. To calculate the content in each of the samples of the intact, oxidized (if any), or proteolytic form of each of the nine peptides, the sum of the intensities of the chromatographic peaks of its multicharged ions, exactly corresponding to the values of the polyprotonated molecules of each of the forms, was used. The line “Proteoforms, %” took into account the sum of all proteolytic forms of a particular peptide for each of the five samples. The values of the intensities of each of the forms (intact, oxidized, and proteolytic) obtained in this way were summed up and, in relation to their resulting sum, the percentage content of each of the three forms in Table 2 was calculated for each of the five samples with different reagents.
The skin secretions of five sexually mature female specimens of the same size of Pelophylax esculentus, caught within the Moscow city limits, were obtained via mild electro-stimulation of the skin glands using a laboratory electro-stimulator [15, 51]. The “milking” parameters were as follows: signal frequency 50 Hz, pulse duration 3 ms, voltage 12 V, total stimulation time 40 s. The secretion was washed off with deionized water into separate containers, to which the following reagents were immediately added individually: —HCl to final concentration 1% (sample 1); —CH3OH (sample 2); —HCOOH to final concentration 1% (sample 3); —0.1 mM PMSF (sample 4 in DMSO); —1.0 mM PMSF (sample 5 in DMSO). All samples were centrifuged for 15 min at 3 000 rpm, filtered through removable membrane filters (PTFE 0.45 μm), and lyophilized. The storage temperature was −26 °C. All five individuals were immediately returned to their place of capture after the procedure.
Mass spectra were obtained on an Orbitrap ID-X high-resolution mass spectrometer (Thermo Scientific, Waltham, MA, USA) coupled to an LC-30 Nexera liquid chromatograph (Shimadzu, Kyoto, Japan) in LC-HRMS mode. An HPLC system consisted of two LC-30AD chromatographic pumps, a DGU-5A vacuum degasser, a SIL-30AC autosampler, an STO-20A column thermostat, and a CBM-20A system controller. The components of the secretions were separated on an XDB-C18 column (Agilent, Santa Clara, CA, USA) with a length of 100 mm and phase particle size of 1.8 μm. Gradient chromatography was performed using the following solutions: A—0.1% formic acid solution in deionized water (Milli-Q, Millipore, Molsheim, France); B—0.1% formic acid solution in acetonitrile containing 2% deionized water. All lyophilized samples were dissolved in phase B prior to the analysis. Injection volume was set to 0.1 µL. […]

Like-named read-outs stand apart in the source and are kept apart here.

As for “GXWNTXKATGKSA ASNVAVTLLDKAKCK(LV)GEC-OH (disulfide) [Brev 2La, Brevinin 2La, natural disulfide skin peptide of Pelophylax esculentus, brevinin 2 family, 33 aa]”, the “Proteoforms, %” value (sample 1: HCl final concentration 1%, all forms = 100%) turned out to be 69.02%; the “Proteoforms, %” value (sample 2: CH3OH, all forms = 100%) is reported as “not observed at all”; the “Proteoforms, %” value (sample 3: HCOOH final concentration 1%, all forms = 100%) came out at 4.98%; the “Proteoforms, %” value (sample 5: PMSF 1.0 mM (in DMSO), all forms = 100%) is reported as “not observed at all”. The “Intact, %” value runs as follows: (sample 1: aqueous P. esculentus skin secretion, HCl added to final concentration 1%, sum of intensities of all forms of the peptide = 100%) 30.98%; (sample 2: aqueous P. esculentus skin secretion with CH3OH added, all forms = 100%) 100%; (sample 3: aqueous P. esculentus skin secretion, HCOOH added to final concentration 1%, all forms = 100%) 95.02%.
Take `O=S(=O)(F)Cc1ccccc1` [PMSF, phenylmethylsulfonyl fluoride, reference compound]: the “Efficiency of the reagent in deactivating proteases in amphibian skin secretions” value (comparison of HCl 1%, CH3OH, HCOOH 1%, PMSF 0.1 and 1.0 mM by preservation of nine intact peptides) was “ineffective”.
